Assay results published in patent US20070015132A1 (priority 2001, published 2007).

Tests used:
[1] = test system: Mouse fibroblast cells (ATCC CRL-10225); type: cell-based
[2] = test system: Mouse fibroblast cells (ATCC CRL-10225); assay: Glucose and lactate metabolic rate of fibroblast cells exposed to toxicants in 24-well plate; settings: 6 hours; for glucose metabolic rate / lactate metabolic rate: different concentrations; for cell death on exposure: trypan blue exclusion

Row | SMILES | effect on medium acidification rate at low concentrations [1] | effect on medium acidification rate with concentration increasing [1] | glucose metabolic rate [2] | lactate metabolic rate [2] | cell death on exposure [2] | cell death on exposure ([2]; concentration 10 mM)
1 | O=[N+]([O-])c1ccc(O)c([N+](=O)[O-])c1 [2,4-dinitrophenol] | stimulate | stimulation effects become weak until inhibition effects are observed | opposite impact | opposite impact | not observed | 
2 | [F-].[Na+] [fluoride, sodium fluoride] |  |  | inhibited in concentration dependent manner | inhibited in concentration dependent manner |  | all cells died
